Values joined by “and” are separate entries in the source; they are usually repeats but may differ in a detail not shown here. Equal entries are not always repeated. Where two headings read alike, the source gives them in different places.

For data set [1] the following is noted: as described in WO 95/19994; cited from earlier work.
Data set [2] can be described thus: solubilization of Taxotere in water by inclusion in the cyclodextrin derivative. Format: physicochemical. Particulars: 50 mmol·L^−1 of compound in sterile water; for solubility of the Taxotere in a solution of the compound: stirred at 70° C., stays in solution at ambient temperature. The text has this: These inclusion complexes can be prepared for example by adding to a solution or a suspension of the compound of the invention of formula (I) the pharmacologically active molecule in solution or in the pure state. The inclusion complex thus formed can be isolated by freeze-drying.
In the case of the compounds of the taxol family, such as Taxotere®, it is also possible to disperse this product in the pure state in a sterile solution of a compound according to the invention.
Starting with Taxotere in the pure state, 2.1 mg ([…]) of this product is dispersed in 1 mL of a solution containing 50 mmol·L^−1 of compound No. 1 in sterile water, then the suspension obtained is stirred at 70° C. until a clear solution is obtained which indicates the complexing of the Taxotere.

Another data set is described as follows: solubility in water. Format: physicochemical.
The target in data set [3] is concanavalin A (ConA) lectin (Canavalia ensiformis, UniProt P02866). Format: binding. As to the method: The affinity of the thioureidocysteaminyl-cyclodextrins of the invention for specific membrane lectins was evaluated in vitro following the ELLA (Enzyme-Linked Lectin Assay) protocol. […] 2002, 102, pp. 555-578. This technique measures the capacity of a soluble mono- or oligosaccharide ligand to inhibit the association between a complementary lectin and another reference ligand fixed to a plastic support microplate.
The IC50 values are inversely proportional to the respective affinities.
The cells of a microtitre plate (Nunc-Immuno™ plates, MaxiSorp™) are loaded with 100 μL of a stock solution of yeast mannan (Sigma, 10 μg·mL^−1) in a saline phosphate buffer solution (PBS; pH 7.3 containing Ca^2+ 0.1 mM and Mn^2+ 0.1 mM) for one night at ambient temperature. The cells are washed (3×300 μL) with a buffer solution containing 0.05% (v/v) of Tween 20 (PBST). This washing protocol is repeated after each incubation during the test. A bovine serum albumin solution (BSA, 1%) in PBS (150 μL/cell) is then added to the cells followed by incubation for 1 hour at 37° C., then washed.
In order to determine the optimal lectin concentration for inhibition studies, 100 μL of a series of concanavalin A solutions marked with radish peroxidase of 10^−1 to 10^−5 mg·mL^−1 in PBS is added to the cells loaded with mannan, and treated as indicated above. After incubation at 37° C. for 1 hour, the plates are washed (PBST) and a solution (50 μL) of the diammonium salt of 2,2′-azinobis(3-ethylbenzothiazoline-6-sulphonic) acid (ABTS, 1 mg in 4 mL) in citrate buffer (0.2 M, pH 4.0 with 0.015% hydrogen peroxide) is added. The reaction is stopped after 20 minutes by adding 50 μL/cell of sulphuric acid 1 M and the absorbances are measured at 415 nm using an ELISA reader. The control cells contained citrate-phosphate buffer.
In a series of experiments ConA marked with radish peroxidase in an appropriate concentration as indicated above (60 μL/cell) is added to the solutions of each compound (60 μL/cell) in PBS sequentially diluted twice, in a Nunclon™ (Delta) microtitre plate which is incubated at 37° C. for 1 hour. The solutions (100 μL/cell) are then transferred onto a microtitre plate loaded with mannan and treated as indicated above, which is then incubated at 37° C. for 1 hour. The cells are washed (PBST) and the ABTS solution (50 μL/cell) is added. After 20 minutes, the reaction is stopped (sulphuric acid) and the absorbances are measured. The percentage of inhibition is calculated with the formula: […]

Turning to “6^I-S-α-maltosyl-6^I-thiocyclomaltoheptaose”, the “solubility in water of Taxotere on adding the cyclodextrin derivative to its aqueous suspension” value in data set [1] is “up to 6.5 g/L”.
`Cl.Cl.Cl.Cl.Cl.Cl.Cl.NCCSC[C@H]1O[C@@H]2O[C@H]3[C@H](O)[C@@H](O)[C@@H](O[C@H]4[C@H](O)[C@@H](O)[C@@H](O[C@H]5[C@H](O)[C@@H](O)[C@@H](O[C@H]6[C@H](O)[C@@H](O)[C@@H](O[C@H]7[C@H](O)[C@@H](O)[C@@H](O[C@H]8[C@H](O)[C@@H](O)[C@@H](O[C@H]1[C@H](O)[C@H]2O)O[C@@H]8CSCCN)O[C@@H]7CSCCN)O[C@@H]6CSCCN)O[C@@H]5CSCCN)O[C@@H]4CSCCN)O[C@@H]3CSCCN` [Compound No. 1, heptakis[6-S-(2-aminoethyl-6-thio)]cyclomalto heptaose heptahydrochloride]: in data set [2], the “increase in the solubility of the Taxotere versus absence of cyclodextrin” value is listed as approximately 525 times and the “solubility of the Taxotere in a solution of the compound” value is 2100 µg/mL. Further, the solubility in water in the data set “solubility in water” is 500 g·L^−1 and 323 mmol·L^−1.
On to `OC[C@H]1O[C@H](NC(=S)NCCSC[C@H]2O[C@@H]3O[C@H]4[C@H](O)[C@@H](O)[C@@H](O[C@H]5[C@H](O)[C@@H](O)[C@@H](O[C@H]6[C@H](O)[C@@H](O)[C@@H](O[C@H]7[C@H](O)[C@@H](O)[C@@H](O[C@H]8[C@H](O)[C@@H](O)[C@@H](O[C@H]9[C@H](O)[C@@H](O)[C@@H](O[C@H]2[C@H](O)[C@H]3O)O[C@@H]9CSCCNC(=S)N[C@H]2O[C@H](CO)[C@@H](O)[C@H](O)[C@@H]2O)O[C@@H]8CSCCNC(=S)N[C@H]2O[C@H](CO)[C@@H](O)[C@H](O)[C@@H]2O)O[C@@H]7CSCCNC(=S)N[C@H]2O[C@H](CO)[C@@H](O)[C@H](O)[C@@H]2O)O[C@@H]6CSCCNC(=S)N[C@H]2O[C@H](CO)[C@@H](O)[C@H](O)[C@@H]2O)O[C@@H]5CSCCNC(=S)N[C@H]2O[C@H](CO)[C@@H](O)[C@H](O)[C@@H]2O)O[C@@H]4CSCCNC(=S)N[C@H]2O[C@H](CO)[C@@H](O)[C@H](O)[C@@H]2O)[C@@H](O)[C@@H](O)[C@@H]1O` [Compound No. 2], for which, in data set [3], half-maximal inhibition (IC50) required 175 µM, the Relative affinity worked out at 4.9 and the Relative molar affinity is 0.7.
In data set [3], `OC[C@H]1O[C@H](OCC(CO[C@H]2O[C@H](CO)[C@@H](O)[C@H](O)[C@@H]2O)(CO[C@H]2O[C@H](CO)[C@@H](O)[C@H](O)[C@@H]2O)NC(=S)NCCSC[C@H]2O[C@@H]3O[C@H]4[C@H](O)[C@@H](O)[C@@H](O[C@H]5[C@H](O)[C@@H](O)[C@@H](O[C@H]6[C@H](O)[C@@H](O)[C@@H](O[C@H]7[C@H](O)[C@@H](O)[C@@H](O[C@H]8[C@H](O)[C@@H](O)[C@@H](O[C@H]9[C@H](O)[C@@H](O)[C@@H](O[C@H]2[C@H](O)[C@H]3O)O[C@@H]9CSCCNC(=S)NC(CO[C@H]2O[C@H](CO)[C@@H](O)[C@H](O)[C@@H]2O)(CO[C@H]2O[C@H](CO)[C@@H](O)[C@H](O)[C@@H]2O)CO[C@H]2O[C@H](CO)[C@@H](O)[C@H](O)[C@@H]2O)O[C@@H]8CSCCNC(=S)NC(CO[C@H]2O[C@H](CO)[C@@H](O)[C@H](O)[C@@H]2O)(CO[C@H]2O[C@H](CO)[C@@H](O)[C@H](O)[C@@H]2O)CO[C@H]2O[C@H](CO)[C@@H](O)[C@H](O)[C@@H]2O)O[C@@H]7CSCCNC(=S)NC(CO[C@H]2O[C@H](CO)[C@@H](O)[C@H](O)[C@@H]2O)(CO[C@H]2O[C@H](CO)[C@@H](O)[C@H](O)[C@@H]2O)CO[C@H]2O[C@H](CO)[C@@H](O)[C@H](O)[C@@H]2O)O[C@@H]6CSCCNC(=S)NC(CO[C@H]2O[C@H](CO)[C@@H](O)[C@H](O)[C@@H]2O)(CO[C@H]2O[C@H](CO)[C@@H](O)[C@H](O)[C@@H]2O)CO[C@H]2O[C@H](CO)[C@@H](O)[C@H](O)[C@@H]2O)O[C@@H]5CSCCNC(=S)NC(CO[C@H]2O[C@H](CO)[C@@H](O)[C@H](O)[C@@H]2O)(CO[C@H]2O[C@H](CO)[C@@H](O)[C@H](O)[C@@H]2O)CO[C@H]2O[C@H](CO)[C@@H](O)[C@H](O)[C@@H]2O)O[C@@H]4CSCCNC(=S)NC(CO[C@H]2O[C@H](CO)[C@@H](O)[C@H](O)[C@@H]2O)(CO[C@H]2O[C@H](CO)[C@@H](O)[C@H](O)[C@@H]2O)CO[C@H]2O[C@H](CO)[C@@H](O)[C@H](O)[C@@H]2O)[C@@H](O)[C@@H](O)[C@@H]1O` [Compound No. 3, heptakis[6-S-[2-N′-tris(α-D-mannopyranosyloxymethyl)methylthioureido]ethyl-6-thio]cyclomaltoheptaose] had a Relative affinity of 41 and a Relative molar affinity of 2.0.
In data set [3] (relative to Me-α-D-Glcp = 1), `COC1OC(CO)C(O)C(O)C1O` [Me-α-D-Glcp, methyl-α-D-glucopyranoside, reference compound] returned a Relative affinity of 1 and a Relative molar affinity of 1.
As for `OCC1OC(NC(=S)NCC2OC3OC4C(CNC(=S)NC5OC(CO)C(O)C(O)C5O)OC(OC5C(CNC(=S)NC6OC(CO)C(O)C(O)C6O)OC(OC6C(CNC(=S)NC7OC(CO)C(O)C(O)C7O)OC(OC7C(CNC(=S)NC8OC(CO)C(O)C(O)C8O)OC(OC8C(CNC(=S)NC9OC(CO)C(O)C(O)C9O)OC(OC9C(CNC(=S)NC%10OC(CO)C(O)C(O)C%10O)OC(OC2C(O)C3O)C(O)C9O)C(O)C8O)C(O)C7O)C(O)C6O)C(O)C5O)C(O)C4O)C(O)C(O)C1O` [heptakis(6-deoxy-6-α-D-mannopyranosylthioureido)cyclomaltoheptaose, reference compound], the “inhibition of the association between concanavalin A and yeast mannan” value in data set [3] (175 µM) stood at 8%.
Regarding “heptakis[6-S-[2-N′-[2,2,2-tris[5-(1-thio-α-D-mannopyranosyl)-2-oxapentyl]ethyl]thioureido]ethyl-6-thio]cyclomaltoheptaose [Compound No. 4]”, in data set [3], the Relative affinity turned out to be 173 and the Relative molar affinity is listed as 8.2. Besides, in data set [2], the “increase in the solubility of the Taxotere versus absence of cyclodextrin” value is recorded as approximately 500 times and the “solubility of the Taxotere in a solution of the compound” value was determined as 2000 µg/mL.
As to “heptakis[6-S-[2-N′-[2,2-bis[5-(1-thio-α-D-mannopyranosyl)-2-oxapentyl]-2-[5-(1-thio-β-D-glucopyranosyl)-2-oxapentyl]ethyl]thioureido]ethylthio]cyclomaltoheptaose [Compound No. 7]”, in data set [3], the Relative affinity stood at 67 and the Relative molar affinity is 4.8.
For the molecule “heptakis[6-S-[2-N′-[2-[5-(1-thio-α-D-manno pyranosyl)-2-oxapentyl]-2,2-bis[5-(1-thio-β-D-glucopyranosyl)-2-oxapentyl]ethyl]thioureido]ethyl-6-thio]cyclomaltoheptaose [Compound No. 6]”, in data set [3], the Relative affinity came out at 48, the Relative molar affinity is 6.9 and the “recognition by ConA (in words)” value was “not recognized by ConA”.
